Structures can show the parent of a compound that is named as a salt.
Columns and labels:
Type in all cases: biochemical
rhVAP-1 = rhVAP-1 (Homo sapiens (Human), UniProt Q16853); experiment: VAP-1 fluorometric assay (Amplex Red/HRP, benzylamine substrate); settings: class symbols, ranges defined in μM
Method: The capability of compounds described herein to inhibit the enzymatic activity of vascular adhesion protein-1 (VAP-1) was determined by fluorometric assay. The assay procedure provided by R&D Systems was modified slightly for use as an inhibitor screening assay. The assay measured the H2O2 generated from the oxidative deamination of benzylamine by rhVAP-1 by converting Amplex® Red to the fluorescent product, resorufin, via horseradish peroxidase (HRP) and H2O2. Reaction buffer was 10 mM NaHCO3, pH 7.4. A standard curve was prepared by serially diluting H2O2 in reaction buffer. A 10 μM solution of resorufin was prepared in reaction buffer and was dispensed to 2 wells. These wells served as positive control for maximum fluorescence. Reaction buffer was added to the individual wells so that the final volume in each well was 100 μL. Amplex Red was diluted to 1 mM in reaction buffer. A 10 U stock of HRP was prepared in reaction buffer. A reaction cocktail was prepared by mixing equal parts 1 mM Amplex Red with 10 U HRP with 3 parts reaction buffers. The reaction cocktail was added to the appropriate wells, so that that final concentration in the well was 0.05 mM Amplex Red and 0.5 U HRP. A 200 μM solution of benzylamine was prepared in reaction buffer. Benzylamine was added to the appropriate wells so that the final concentration was 50 μM. Inhibitors were diluted in DMSO to 20× and distributed to the appropriate wells. LJP-1207 served a positive control. rhVAP-1 was purchased from R&D Systems. The concentration used for each lot was determined so that the activity was equal to the first lot. Two wells were left blank as controls. The plate was incubated for 30 minutes at 37° C., protected from light under foil. The plate was read at 530/35 emission and 590/35 excitation. Data processing was performed using Excel and Prism software.
The capability of compounds described herein to inhibit the enzymatic activity of vascular adhesion protein-1 (VAP-1) was determined by fluorometric assay. The assay procedure provided by R&D Systems was modified slightly for use as an inhibitor screening assay. The assay measured the H2O2 generated from the oxidative deamination of benzylamine by rhVAP-1 by converting Amplex® Red to the fluorescent product, resorufin, via horseradish peroxidase (HRP) and H2O2. Amplex Red, HRP, Benzylamine, inhibitors (with DMSO as vehicle, 0.5% v/v) and rhVAP-1 were added to the wells. Assay was conducted in 10 mM NaHCO3, pH 7.4. A standard curve was prepared by serially diluting H2O2 in reaction buffer. The plate was incubated for 30 minutes at 37° C., protected from light under foil. The plate was read at 530/35 emission and 590/35 excitation. Data processing was performed using Prism software.

rhMAO-A = rhMAO-A (Homo sapiens (Human), UniProt P21397); experiment: MAO-Glo assay, MAO-A inhibition
rhMAO-A, sequence (P21397 whole entry): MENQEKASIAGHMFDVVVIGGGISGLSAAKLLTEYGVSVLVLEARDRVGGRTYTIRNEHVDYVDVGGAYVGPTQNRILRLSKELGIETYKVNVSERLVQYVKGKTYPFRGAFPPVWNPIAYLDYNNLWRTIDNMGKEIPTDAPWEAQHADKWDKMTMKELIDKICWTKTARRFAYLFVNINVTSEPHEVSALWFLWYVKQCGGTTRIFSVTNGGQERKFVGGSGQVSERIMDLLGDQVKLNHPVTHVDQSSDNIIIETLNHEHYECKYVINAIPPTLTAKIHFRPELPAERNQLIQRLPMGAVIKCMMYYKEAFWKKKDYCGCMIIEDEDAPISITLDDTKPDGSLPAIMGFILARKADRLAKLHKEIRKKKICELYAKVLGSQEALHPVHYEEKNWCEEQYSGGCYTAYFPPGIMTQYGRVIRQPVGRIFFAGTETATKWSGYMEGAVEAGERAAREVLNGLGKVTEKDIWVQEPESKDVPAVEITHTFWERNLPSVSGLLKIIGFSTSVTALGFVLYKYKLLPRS
Method: (§1) The capability of compounds described herein to inhibit MAO was determined using a modified Promega MAO-Glo™ assay kit. The substrate ((4S)-4,5-dihydro-2-(6-hydroxybenzothiazolyl)-4-thiazolecarboxylic acid) was converted by MAO to produce methyl ester luciferin. The luciferin was then converted by luciferase to produce oxyluciferin and light. The light was measured using a luminescence setting on the plate reader. A standard curve was prepared by serially diluting luciferin in reaction buffer. The standard kit reaction buffer was used—100 mM HEPES (pH 7.5), 5% glycerol. The substrate was dispensed into the wells so that the final concentration for MAO-A inhibition assay would be 10 μM and MAO-B inhibition assay would be […]. Inhibitors were diluted in DMSO to 4× and distributed to the appropriate wells. Clorgyline and Deprenyl served as positive controls. rhMAO-A and rhMAO-B were purchased from Sigma. MAO-A or MAO-B was added to the appropriate wells. The plate was incubated for 1 hour, at room temperature with gentle shaking (90 rpm). The detection agent was added at equal volume (48 μL detection agent to 48 μL reaction). The plate was incubated for 20 minutes, at room temperature with gentle shaking (90 rpm). The plate luminescence was read. Data processing was performed using Prism software.
(§2) The capability of compounds described herein to inhibit MAO was determined using a modified Promega MAO-Glo™ assay. Test compounds, substrate and enzyme were incubated per manufacturer instructions for 1 hour, at room temperature with gentle shaking (90 rpm) before addition of detection agent. The detection agent was added at equal volume (48 μL detection agent to 48 μL reaction). The plate was incubated for 20 minutes, at room temperature with gentle shaking (90 rpm). The plate luminescence was read. Data processing was performed using Prism software.

rhMAO-B = rhMAO-B (Homo sapiens (Human), UniProt P27338); experiment: MAO-Glo assay, MAO-B inhibition
rhMAO-B, sequence (P27338 whole entry): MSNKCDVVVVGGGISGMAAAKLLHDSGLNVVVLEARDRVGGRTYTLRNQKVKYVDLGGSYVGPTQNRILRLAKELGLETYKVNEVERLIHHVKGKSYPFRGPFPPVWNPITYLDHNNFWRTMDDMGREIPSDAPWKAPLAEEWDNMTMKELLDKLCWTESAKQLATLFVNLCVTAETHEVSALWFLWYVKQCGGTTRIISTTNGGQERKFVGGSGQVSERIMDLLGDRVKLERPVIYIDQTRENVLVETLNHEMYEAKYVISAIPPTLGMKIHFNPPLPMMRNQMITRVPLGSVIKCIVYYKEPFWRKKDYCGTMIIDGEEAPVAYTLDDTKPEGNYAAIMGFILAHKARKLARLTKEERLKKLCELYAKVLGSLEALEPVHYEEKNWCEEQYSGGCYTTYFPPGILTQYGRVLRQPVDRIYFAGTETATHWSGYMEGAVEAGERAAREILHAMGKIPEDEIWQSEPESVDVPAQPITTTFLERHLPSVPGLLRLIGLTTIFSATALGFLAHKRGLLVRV
Method: as §1, §2

[1] = class symbols, ranges defined in μM

rhVAP-1, sequence (Q16853 whole entry): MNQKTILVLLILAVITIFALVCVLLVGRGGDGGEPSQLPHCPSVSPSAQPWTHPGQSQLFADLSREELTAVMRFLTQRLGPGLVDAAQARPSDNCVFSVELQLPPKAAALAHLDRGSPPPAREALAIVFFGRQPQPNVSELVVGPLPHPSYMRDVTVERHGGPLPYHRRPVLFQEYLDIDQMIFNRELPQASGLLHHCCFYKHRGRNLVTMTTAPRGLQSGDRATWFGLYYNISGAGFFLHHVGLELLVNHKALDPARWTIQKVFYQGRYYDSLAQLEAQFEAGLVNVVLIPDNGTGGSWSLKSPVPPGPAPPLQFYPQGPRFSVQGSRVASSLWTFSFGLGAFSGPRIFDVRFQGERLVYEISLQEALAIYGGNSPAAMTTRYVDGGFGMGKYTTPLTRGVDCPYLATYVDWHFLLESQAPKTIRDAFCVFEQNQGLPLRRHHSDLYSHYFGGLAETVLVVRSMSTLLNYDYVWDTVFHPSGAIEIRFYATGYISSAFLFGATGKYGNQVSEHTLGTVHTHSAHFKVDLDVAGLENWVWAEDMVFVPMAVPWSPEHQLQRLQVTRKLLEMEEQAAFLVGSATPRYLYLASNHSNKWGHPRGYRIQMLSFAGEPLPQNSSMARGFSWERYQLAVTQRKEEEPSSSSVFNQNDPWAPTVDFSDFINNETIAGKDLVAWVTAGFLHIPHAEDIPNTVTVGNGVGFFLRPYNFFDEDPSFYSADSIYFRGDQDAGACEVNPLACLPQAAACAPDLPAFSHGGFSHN

Row | IC50 (rhVAP-1) | IC50 (rhMAO-A; [1]) | IC50 (rhMAO-B; [1]) | IC50 (rhMAO-A; bound printed in cell) | IC50 (rhMAO-B; bound printed in cell) | SMILES
1 | < 0.1 µM | 1 to 10 µM | 10 to 30 µM | – | – | CCCCc1nc2ccc(C(=CF)CN)cc2o1 [Example 27, 2-(2-butylbenzo[d]oxazol-6-yl)-3-fluoroprop-2-en-1-amine 4-methylbenzenesulfonate]
2 | < 0.1 µM | – | – | – | – | CCCCc1nc2ccc(CCC(=CF)CN)cc2o1 [Example 52, 4-(2-butylbenzo[d]oxazol-6-yl)-2-(fluoromethylene)butan-1-amine 4-methylbenzenesulfonate]
3 | < 0.1 µM | – | 10 to 30 µM | > 50 µM | – | CNC(=O)C(Cc1ccccc1)Nc1nc2ccc(OC/C(=C\F)CN)cc2o1 (stereo not drawn) [Example 56, (Z)-2-((6-((2-(aminomethyl)-3-fluoroallyl)oxy)benzo[d]oxazol-2-yl)amino)-N-methyl-3-phenylpropanamide 4-methylbenzenesulfonate]
4 | < 0.1 µM | 10 to 30 µM | 1 to 10 µM | – | – | CC(C)(C)Nc1nc2ccc(OC/C(=C/F)CN)cc2o1 [Example 39, (E)-6-((2-(aminomethyl)-3-fluoroallyl)oxy)-N-(tert-butyl)benzo[d]oxazol-2-amine 4-methylbenzenesulfonate]
5 | < 0.1 µM | 10 to 30 µM | 0.1 to 1 µM | – | – | CN(Cc1ccccc1)c1nc2ccc(OC/C(=C/F)CN)cc2o1 [Example 49, (E)-6-((2-(aminomethyl)-3-fluoroallyl)oxy)-N-benzyl-N-methylbenzo[d]oxazol-2-amine 4-methylbenzenesulfonate]
6 | 0.1 to 1 µM | 10 to 30 µM | 10 to 30 µM | – | – | CCCCc1nc2ccc(C(=O)NC/C(=C/F)CN)cc2o1 [Example 40, (E)-N-(2-(aminomethyl)-3-fluoroallyl)-2-butylbenzo[d]oxazole-6-carboxamide 4-methylbenzenesulfonate]
7 | < 0.1 µM | 1 to 10 µM | < 0.1 µM | – | – | CCCCc1nc2c(F)cc(OC/C(=C/F)CN)cc2o1 [Example 82, (E)-2-(((2-butyl-4-fluorobenzo[d]-oxazol-6-yl)oxy)methyl)-3-fluoroprop-2-en-1-amine 4-methylbenzenesulfonate]
8 | < 0.1 µM | 10 to 30 µM | 0.1 to 1 µM | – | – | CC1(C)CCC(c2nc3ccc(OC/C(=C/F)CN)cc3o2)CC1 [Example 36, (E)-2-(((2-(4,4-dimethylcyclohexyl)benzo[d]oxazol-6-yl)oxy)methyl)-3-fluoroprop-2-en-1-amine 4-methylbenzenesulfonate]
9 | < 0.1 µM | – | 1 to 10 µM | > 50 µM | – | Cc1cc(CNc2nc3ccc(OC/C(=C/F)CN)cc3o2)cc(C)n1 [Example 91, (E)-6-((2-(Aminomethyl)-3-fluoroallyl)oxy)-N-((2,6-dimethylpyridin-4-yl)methyl)benzo[d]oxazol-2-amine trihydrochloride]
10 | < 0.1 µM | – | – | > 40 µM | > 40 µM | CNC(=O)[C@@H](Cc1ccccc1)Nc1nc2ccc(OC/C(=C\F)CN)cc2o1 [Example 80, (R,Z)-2-((6-((2-(aminomethyl)-3-fluoroallyl)oxy)benzo[d]oxazol-2-yl)amino)-N-methyl-3-phenylpropanamide 4-methylbenzenesulfonate]
11 | < 0.1 µM | 0.1 to 1 µM | 1 to 10 µM | – | – | NC/C(=C/F)COc1ccc2nc(NCCC3COC3)oc2c1 [Example 65, (Z)-6-((2-(aminomethyl)-3-fluoroallyl)oxy)-N-(2-(oxetan-3-yl)ethyl)benzo[d]oxazol-2-amine 4-methylbenzenesulfonate]
12 | < 0.1 µM | 1 to 10 µM | 1 to 10 µM | – | – | CCCN(C)c1nc2ccc(OC/C(=C/F)CN)cc2o1 [Example 46, (E)-6-((2-(aminomethyl)-3-fluoroallyl)oxy)-N-methyl-N-propylbenzo[d]oxazol-2-amine 4-methylbenzenesulfonate]
13 | < 0.1 µM | 10 to 30 µM | 10 to 30 µM | – | – | CCCCc1nc2ccc(OCC(CN)=C(F)F)cc2o1 [Example 32, 2-(((2-butylbenzo[d]oxazol-6-yl)oxy)methyl)-3,3-difluoroprop-2-en-1-amine hydrochloride]
14 | < 0.1 µM | – | 0.1 to 1 µM | > 50 µM | – | NC/C(=C/F)COc1ccc2nc(NCc3ccncc3)oc2c1 [Example 94, (Z)-6-((2-(aminomethyl)-3-fluoroallyl)oxy)-N-(pyridin-4-ylmethyl)benzo[d]oxazol-2-amine 4-methylbenzenesulfonate]
15 | < 0.1 µM | – | 1 to 10 µM | > 50 µM | – | CNC(=O)[C@H](Cc1ccccc1)Nc1nc2ccc(OC/C(=C\F)CN)cc2o1 [Example 71, (S,Z)-2-((6-((2-(aminomethyl)-3-fluoroallyl)oxy)benzo[d]oxazol-2-yl)amino)-N-methyl-3-phenylpropanamide 4-methylbenzenesulfonate]
16 | < 0.1 µM | 10 to 30 µM | < 0.1 µM | – | – | CCCCc1nc2ccc(COC/C(=C/F)CN)cc2o1 [Example 28, (E)-2-(((2-butylbenzo[d]oxazol-6-yl)methoxy)methyl)-3-fluoroprop-2-en-1-amine]
17 | < 0.1 µM | 10 to 30 µM | 0.1 to 1 µM | – | – | NC/C(=C\F)COc1ccc2nc(NCCc3ccccc3)oc2c1 [Example 45, (E)-6-((2-(aminomethyl)-3-fluoroallyl)oxy)-N-phenethylbenzo[d]oxazol-2-amine 4-methylbenzenesulfonate]
18 | < 0.1 µM | 1 to 10 µM | 1 to 10 µM | – | – | NC/C(=C\F)COc1ccc2nc(C34CC5CC(CC(C5)C3)C4)oc2c1 [Example 54, (E)-2-(((2-((3r,5r,7r)-adamantan-1-yl)benzo[d]oxazol-6-yl)oxy)methyl)-3-fluoroprop-2-en-1-amine 4-methylbenzenesulfonate]
19 | < 0.1 µM | 10 to 30 µM | 0.1 to 1 µM | – | – | CCCNc1nc2ccc(OC/C(=C/F)CN)cc2s1 [Example 4, (E)-6-((2-(aminomethyl)-3-fluoroallyl)oxy)-N-propylbenzo[d]thiazol-2-amine]
20 | < 0.1 µM | 1 to 10 µM | 1 to 10 µM | – | – | CCCNc1nc2ccc(OC/C(=C\F)CN)cc2s1 [Example 12, (Z)-6-((2-(aminomethyl)-3-fluoroallyl)oxy)-N-propylbenzo[d]thiazol-2-amine 4-methylbenzenesulfonate]
21 | 0.1 to 1 µM | – | – | – | – | CCCCc1nc2ccc(OC/C(F)=C\CN)cc2o1 [Example 16, (E)-4-((2-butylbenzo[d]oxazol-6-yl)oxy)-3-fluorobut-2-en-1-amine]
22 | 0.1 to 1 µM | – | – | – | – | C=C(CN)C(F)(F)Oc1ccc2nc(CCCC)oc2c1 [Example 29, 2-(((2-butylbenzo[d]oxazol-6-yl)oxy)difluoromethyl)prop-2-en-1-amine hydrochloride]
23 | 0.1 to 1 µM | – | – | – | – | CCCCc1nc2ccc(/C=C(/F)CN)cc2o1 [Example 95, (E)-3-(2-butylbenzo[d]oxazol-6-yl)-2-fluoroprop-2-en-1-amine]
24 | < 0.1 µM | – | < 0.1 µM | – | – | CCCCc1nc2ccc(OC/C(=C\F)CN)c(F)c2s1 [Example 15, (Z)-2-(((2-butyl-7-fluorobenzo[d]thiazol-6-yl)oxy)methyl)-3-fluoroprop-2-en-1-amine 4-methylbenzenesulfonate]

— patent US20230295140A1, “INHIBITORS OF VAP-1” (Acucela Inc., priority 2021, published 2023)
